The results in this text go back to the supplement of paper PMC6045584.

Compound in one assay: COCC[n+]1c2c(n(Cc3cnccn3)c1C)C(=O)c1ccccc1C2=O [YM155]
The assay is described as follows: surviving fraction relative to DMSO-only wells; higher = less growth inhibition. The settings on record: exposure time: 5 days. The essentials: (§1)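 For each tumour cell line, log-phase cells were put into 384-well plates at 250–500 cells per well, then after 24 hours exposed continuously for five days to inhibitors at 0.5, 1, 5, 10, 50, 100, 500 and 1000 nM. Viability was assessed by CellTiter-Glo luminescence, with surviving fraction expressed relative to the median of DMSO-only wells. Lines were screened three times and retained only if replicate Pearson r exceeded 0.7 and median Z' exceeded 0.3.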

Compound in a further assay: C[C@]1(O)C[C@@H](c2nc(-c3ccc4ccc(-c5ccccc5)nc4c3)c3c(N)nccn32)C1 [OSI-906]
Described as above. The following applies: exposure time: 5 days. The gist of the method:
as §1

± gives the standard deviation of the averaged measurements.

Regarding NCIH441 LUNG, the surviving fraction in the assay with YM155 (0.5 nM) worked out at 0.991 ± 0.038; in the assay with YM155 (1 nM), 1.05 ± 0.024; in the assay with YM155 (5 nM), 0.547 ± 0.064; with YM155 (10 nM), 0.284 ± 0.023; in the assay with YM155 (50 nM) it was 0.0333 ± 0.0011; with YM155 (100 nM), 0.0273 ± 0.00058. In addition, the surviving fraction with YM155 (500 nM) was found to be 0.023 ± 0.001; in the assay with YM155 (1000 nM) it was 0.0267 ± 0.0011; with OSI-906 (0.5 nM) it was 0.976 ± 0.058; with OSI-906 (1 nM), 1 ± 0.033; with OSI-906 (5 nM), 0.993 ± 0.07; with OSI-906 (10 nM), 0.969 ± 0.03. Besides, the surviving fraction turned out to be 1.04 ± 0.034 in the assay with OSI-906 (50 nM), 1.03 ± 0.028 with OSI-906 (100 nM), 0.841 ± 0.019 with OSI-906 (500 nM) and 0.737 ± 0.048 in the assay with OSI-906 (1000 nM).
NY BONE: the surviving fraction came out at 0.911 ± 0.035 with YM155 (0.5 nM); 0.949 ± 0.017 with YM155 (1 nM); 0.965 ± 0.021 in the assay with YM155 (5 nM); 0.997 ± 0.031 with YM155 (10 nM); 1.01 ± 0.02 in the assay with YM155 (50 nM); 0.988 ± 0.037 with YM155 (100 nM). The surviving fraction in the assay with YM155 (500 nM) was found to be 0.449 ± 0.023; in the assay with YM155 (1000 nM), 0.346 ± 0.0047; with OSI-906 (0.5 nM), 0.9347 ± 0.009; with OSI-906 (1 nM), 0.9183 ± 0.0031; with OSI-906 (5 nM), 1.027 ± 0.01; with OSI-906 (10 nM), 0.96 ± 0.011. The surviving fraction is 1 ± 0.011 with OSI-906 (50 nM), 0.977 ± 0.035 with OSI-906 (100 nM), 0.903 ± 0.023 with OSI-906 (500 nM) and 0.915 ± 0.038 in the assay with OSI-906 (1000 nM).
With OS25HAL BONE, the surviving fraction came to 0.944 ± 0.046 with YM155 (0.5 nM); 0.987 ± 0.022 in the assay with YM155 (1 nM); 0.295 ± 0.029 with YM155 (5 nM); 0.158 ± 0.03 with YM155 (10 nM); 0.0603 ± 0.0068 with YM155 (50 nM); 0.0357 ± 0.0042 with YM155 (100 nM). Also, the surviving fraction came out at 0.0193 ± 0.00058 in the assay with YM155 (500 nM); 0.0267 ± 0.0021 with YM155 (1000 nM); 0.866 ± 0.066 with OSI-906 (0.5 nM); 0.892 ± 0.017 with OSI-906 (1 nM); 0.894 ± 0.025 in the assay with OSI-906 (5 nM); 0.871 ± 0.017 with OSI-906 (10 nM). Also, the surviving fraction with OSI-906 (50 nM) was 0.854 ± 0.039; with OSI-906 (100 nM), 0.762 ± 0.016; with OSI-906 (500 nM) it was 0.354 ± 0.015; with OSI-906 (1000 nM) it was 0.256 ± 0.037.
For OSHN BONE, the surviving fraction in the assay with YM155 (0.5 nM) was determined as 1.02 ± 0.021; in the assay with YM155 (1 nM), 1.05 ± 0.019; with YM155 (5 nM) it was 0.265 ± 0.013; with YM155 (10 nM) it was 0.097 ± 0.008; in the assay with YM155 (50 nM) it was 0.0293 ± 0.0011; with YM155 (100 nM) it was 0.025 ± 0.001. Moreover, the surviving fraction with YM155 (500 nM) amounted to 0.0203 ± 0.00058; in the assay with YM155 (1000 nM), 0.027 ± 0.0017; in the assay with OSI-906 (0.5 nM), 0.887 ± 0.024; with OSI-906 (1 nM), 0.912 ± 0.026; in the assay with OSI-906 (5 nM), 0.902 ± 0.028; with OSI-906 (10 nM), 0.884 ± 0.046. The surviving fraction with OSI-906 (50 nM) is 0.945 ± 0.0072; with OSI-906 (100 nM) it was 0.927 ± 0.013; in the assay with OSI-906 (500 nM), 0.758 ± 0.012; with OSI-906 (1000 nM), 0.732 ± 0.027.
PCI30 HEADNECK: the surviving fraction with YM155 (0.5 nM) worked out at 0.933 ± 0.064; with YM155 (1 nM), 0.84 ± 0.075; with YM155 (5 nM), 0.793 ± 0.021; with YM155 (10 nM), 0.491 ± 0.017; with YM155 (50 nM), 0.04 ± 0.0027; with YM155 (100 nM), 0.024 ± 0.0017. Moreover, the surviving fraction in the assay with YM155 (500 nM) was 0.021 ± 0.0017; with YM155 (1000 nM) it was 0.0233 ± 0.00058; with OSI-906 (0.5 nM) it was 0.89 ± 0.027; in the assay with OSI-906 (1 nM), 0.947 ± 0.022; with OSI-906 (5 nM), 0.955 ± 0.076; with OSI-906 (10 nM) it was 1.05 ± 0.074. Also, the surviving fraction with OSI-906 (50 nM) was 1.07 ± 0.051; in the assay with OSI-906 (100 nM) it was 1.01 ± 0.077; with OSI-906 (500 nM), 0.939 ± 0.075; with OSI-906 (1000 nM), 0.931 ± 0.033.
For the test system RDES SOFT TISSUE, the surviving fraction in the assay with YM155 (0.5 nM) was 1.44 ± 0.073; with YM155 (1 nM) it was 1.58 ± 0.18; with YM155 (5 nM), 1.65 ± 0.19; with YM155 (10 nM) it was 0.622 ± 0.052; with YM155 (50 nM), 0.0673 ± 0.0035; in the assay with YM155 (100 nM), 0.0373 ± 0.0015. The surviving fraction in the assay with YM155 (500 nM) was 0.036 ± 0.002; with YM155 (1000 nM), 0.0367 ± 0.0021; in the assay with OSI-906 (0.5 nM), 0.836 ± 0.081; with OSI-906 (1 nM), 0.818 ± 0.12; in the assay with OSI-906 (5 nM) it was 0.77 ± 0.14; with OSI-906 (10 nM) it was 0.733 ± 0.18. Also, the surviving fraction in the assay with OSI-906 (50 nM) was 1.1 ± 0.019; in the assay with OSI-906 (100 nM), 1.05 ± 0.086; with OSI-906 (500 nM), 0.84 ± 0.015; with OSI-906 (1000 nM) it was 0.555 ± 0.032.
S68 BREAST: the surviving fraction was 0.884 ± 0.076 with YM155 (0.5 nM); 1.1 ± 0.45 in the assay with YM155 (1 nM); 0.674 ± 0.092 in the assay with YM155 (5 nM); 0.586 ± 0.038 with YM155 (10 nM); 0.143 ± 0.016 with YM155 (50 nM); 0.0627 ± 0.0061 in the assay with YM155 (100 nM). Besides, the surviving fraction with YM155 (500 nM) worked out at 0.0267 ± 0.00058; with YM155 (1000 nM), 0.0277 ± 0.0015; with OSI-906 (0.5 nM), 0.611 ± 0.24; with OSI-906 (1 nM) it was 0.727 ± 0.17; with OSI-906 (5 nM), 0.797 ± 0.27; in the assay with OSI-906 (10 nM) it was 0.721 ± 0.37. For the same test system, the surviving fraction with OSI-906 (50 nM) was determined as 1.19 ± 0.28; with OSI-906 (100 nM) it was 1.06 ± 0.21; in the assay with OSI-906 (500 nM) it was 0.828 ± 0.19; with OSI-906 (1000 nM) it was 0.756 ± 0.05.
